Results reported in patent US12370183B2, “Compositions and methods for treating malaria” (Rutgers, The State University of New Jersey, priority 2020, dated 2025).
Like-named read-outs stand apart in the source and are kept apart here.

Legend:
Type in all cases: cell-based
in vitro = settings: human
Description: (§1) The present invention relates to methods of treating malaria with tetrahydrobenzonaphtyridine carboxanilide (TBN) derivatives and related pyrrolinones and hydrolysis products thereof. These compounds are active against Plasmodium falciparum strains that are resistant to multiple drugs currently on the market. The present invention further relates to novel compounds and pharmaceutical compositions comprising such compounds. The compounds have been synthesized and tested for their potency in the 3D7 strain of Plasmodium falciparum. Their cytotoxicity was also tested in the BJ human fibroblast line. No compounds show significant cytotoxicity.
(§2) A high-throughput screen performed against the Plasmodium parasite. About 8,000 compounds were screened. Each hit was tested against resistant P. falciparum variants K1, V1S, D10DD, ATP4 1247, and C2B. Potency against these assays assured that the chemotype acts through a mechanism distinct from that of halofantrine, chloroquine, mefloquine, pyrimethamine, proguanil, atovaquone, and (+)SJ733. The toxicity of the compounds was also measured by testing their lethality against a BJ cell line (human fibroblasts). No TBNs were toxic. A structure activity investigation was performed in order to improve the EC50 of the TBNs to the single-digit nanomolar range, as well as to increase the water solubility.

[1] = system: 3D7 strain of Plasmodium falciparum; test: Potency in the 3D7 strain of Plasmodium falciparum (EC50); settings: for EC50: Plasmodium falciparum
Description: as §1, §2
(§3) Substituents were installed at N−2 by using a variety of methods. Reductive alkylation (Abdel-Magid, A. F.; Mehrman, S. J. A Review on the Use of Sodium Triacetoxyborohydride in the Reductive Amination of Ketones and Aldehydes. Org. Process Res. Dev. 2006, 10 (5), 971-1031) was a dependable technique that produced over fifteen analogues. Conjugate additions and nucleophilic substitutions provided most of the others. A type of reductive alkylation that uses carboxylic acids instead of aldehydes (the Beller reduction) led to two analogues (Sorribes, I.; Junge, K.; Beller, M. Direct Catalytic N-Alkylation of Amines with Carboxylic Acids. J. Am. Chem. Soc. 2014, 136 (40), 14314-14319. Some of the compounds listed were synthesized through other means, or were derived from other TBNs. Compounds 66 and 128 were produced by the amidation of acids 132 and 133, which had the corresponding substitution already installed. TBNs 93, and 94 were produced from the Pfitzinger products formed from the condensation of isatin with (R)-1-(1-phenylethyl)piperidin-4-one (134) and (S)-1-(1-phenylethyl)piperidin-4-one (135), respectively.

[2] = system: resistant P. falciparum variant K1; test: Potency against resistant P. falciparum variant K1 (EC50); settings: Plasmodium falciparum, K1, read-out: K1 EC50 (μM)
Experimental: as §2, §3

[3] = 3D7, read-out: 3D7 Mean EC50 (μM)

For `CC(=O)O[C@H]1CO[C@H]2[C@@H]1OC[C@@H]2Oc1cccc(N2C(=O)c3c4c(nc5ccccc35)CCN(CCc3ccccc3)C42)c1` (stereo partly drawn) [Compound 183, (3S,3aR,6S,6aR)-6-(3-(1-Oxo-3-phenethyl-2a,3,4,5-tetrahydrobenzo[b]pyrrolo[4,3,2-de][1,6]naphthyridin-2(1H)-yl)phenoxy)hexahydrofuro[3,2-b]furan-3-yl Acetate], the EC50 (in vitro) was over 24000 nM, the “improvement of potency by oxidation of the TBN to the pyrrolinone” value ([1]; 183 versus corresponding TBN 147) was “nearly a hundred-fold” and the EC50 ([1]; 3D7) was 0.0407 µM. The EC50 [1, 3] was 0.0407 ± 0.012 µM.

With `O=C(Nc1ccc(Br)cc1)c1c2c(nc3cc(Cl)ccc13)CCN(CCc1ccccc1)C2` [Compound 171, N-(4-Bromophenyl)-7-chloro-2-phenethyl-1,2,3,4-tetrahydrobenzo[b][1,6]naphthyridine-10-carboxamide] the EC50 (in vitro) was over 24000 nM and the EC50 [1, 3] was 0.37 ± 0.26 µM.

With `CC(c1ccccn1)N1CCc2nc3ccccc3c(C(=O)Nc3ccc(F)c(F)c3)c2C1` (stereo not drawn) [Compound 90, N-(3,4-Difluorophenyl)-2-(1-(pyridin-2-yl)ethyl)-1,2,3,4-tetrahydrobenzo[b][1,6]naphthyridine-10-carboxamide] the EC50 (in vitro) was over 11700 nM, the EC50 [1, 3] was 0.0603 ± 0.0234 µM and the EC50 [2] was 0.0439 µM.

`COc1ccc(N2C(=O)c3c4c(nc5ccc(Cl)cc35)CCN(CCc3ccccc3)C42)cc1OC` (stereo not drawn) [Compound 185, 9-Chloro-2-(3,4-dimethoxyphenyl)-3-phenethyl-2a,3,4,5-tetrahydrobenzo[b]pyrrolo[4,3,2-de][1,6]naphthyridin-1(2H)-one] showed an EC50 (in vitro) of over 24000 nM and an EC50 [1, 3] of 0.049 ± 0.016 µM.

Compound `O=C1c2c3c(nc4ccc(Cl)cc24)CCN(CCc2ccccc2)C3N1c1ccc(Cl)cc1` (stereo not drawn) [Compound 181, 9-Chloro-2-(4-chlorophenyl)-3-phenethyl-2a,3,4,5-tetrahydrobenzo[b]pyrrolo[4,3,2-de][1,6]naphthyridin-1(2H)-one] has an EC50 (in vitro) of over 24000 nM and an EC50 [1, 3] of 0.0126 ± 0.002 µM.

Compound `N#Cc1cc(N2C(=O)c3c4c(nc5cc(Cl)ccc35)CCN(CCc3ccccc3)C42)ccc1F` (stereo not drawn) [Compound 184, 5-(8-Chloro-1-oxo-3-phenethyl-2a,3,4,5-tetrahydrobenzo[b]pyrrolo[4,3,2-de][1,6]naphthyridin-2(1H)-yl)-2-fluorobenzonitrile] has an EC50 (in vitro) of over 24000 nM and an EC50 [1, 3] of 0.0437 ± 0.021 µM.

`COc1ccc(NC(=O)c2c3c(nc4ccc(Cl)cc24)CCN(CCc2ccccc2)C3)cc1OC` [Compound 170, 8-Chloro-N-(3,4-dimethoxyphenyl)-2-phenethyl-1,2,3,4-tetrahydrobenzo[b][1,6]naphthyridine-10-carboxamide] gave an EC50 (in vitro) of over 24000 nM and an EC50 [1, 3] of 0.116 ± 0.025 µM.

In the case of `O=C(Nc1ccc(Cl)cc1)c1c2c(nc3cc(Cl)ccc13)CCN(CCc1ccccc1)C2` [Compound 165, 7-Chloro-N-(4-chlorophenyl)-2-phenethyl-1,2,3,4-tetrahydrobenzo[b][1,6]naphthyridine-10-carboxamide], the EC50 (in vitro) is reported as over 24000 nM and the EC50 [1, 3] is reported as under 0.00809 µM.

`N#Cc1cc(NC(=O)c2c3c(nc4cc(Cl)ccc24)CCN(CCc2ccccc2)C3)ccc1F` [Compound 169, 7-Chloro-N-(3-cyano-4-fluorophenyl)-2-phenethyl-1,2,3,4-tetrahydrobenzo[b][1,6]naphthyridine-10-carboxamide] showed an EC50 (in vitro) of over 24000 nM and an EC50 [1, 3] of 0.04 ± 0.032 µM.

Work on `COc1ccc(N2C(=O)c3c4c(nc5cc(Cl)ccc35)CCN(CCc3ccccc3)C42)cc1OC` (stereo not drawn) [Compound 178, 8-Chloro-2-(3,4-dimethoxyphenyl)-3-phenethyl-2a,3,4,5-tetrahydrobenzo[b]pyrrolo[4,3,2-de][1,6]naphthyridin-1(2H)-one] yielded an EC50 (in vitro) of 9320 ± 6690 nM and an EC50 [1, 3] of 0.00446 ± 0.002 µM.

Work on `O=C(Nc1cccc(Cl)c1)c1c2c(nc3cc(Cl)ccc13)CCN(CCc1ccccc1)C2` [Compound 167, 7-Chloro-N-(3-chlorophenyl)-2-phenethyl-1,2,3,4-tetrahydrobenzo[b][1,6]naphthyridine-10-carboxamide] yielded an EC50 (in vitro) of over 24000 nM and an EC50 [1, 3] of 0.0216 ± 0.012 µM.

With `O=C(Nc1ccc(Cl)cc1)c1c2c(nc3ccc(Cl)cc13)CCN(CCc1ccccc1)C2` [Compound 168, 8-Chloro-N-(4-chlorophenyl)-2-phenethyl-1,2,3,4-tetrahydrobenzo[b][1,6]naphthyridine-10-carboxamide] the EC50 (in vitro) was over 24000 nM and the EC50 [1, 3] was under 0.0348 µM.

Work on `CCOCCN1CCc2nc3ccccc3c3c2C1N(c1ccc(F)c(F)c1)C3=O` (stereo not drawn) [Compound 180, 2-(3,4-Difluorophenyl)-3-(2-ethoxyethyl)-2a,3,4,5-tetrahydrobenzo[b]pyrrolo[4,3,2-de][1,6]naphthyridin-1(2H)-one] yielded an EC50 (in vitro) of over 24000 nM and an EC50 [1, 3] of 0.0087 ± 0.001 µM.

Compound `O=C1c2c3c(nc4ccc(Cl)cc24)CCN(CCc2ccccc2)C3N1c1ccc(Br)cc1` (stereo not drawn) [Compound 182, 2-(4-Bromophenyl)-9-chloro-3-phenethyl-2a,3,4,5-tetrahydrobenzo[b]pyrrolo[4,3,2-de][1,6]naphthyridin-1(2H)-one] has an EC50 (in vitro) of over 24000 nM and an EC50 [1, 3] of 0.0396 ± 0.017 µM.

Compound `O=C1c2c3c(nc4cc(Cl)ccc24)CCN(CCc2ccccc2)C3N1c1ccc(Cl)cc1` (stereo not drawn) [Compound 179, 8-Chloro-2-(4-chlorophenyl)-3-phenethyl-2a,3,4,5-tetrahydrobenzo[b]pyrrolo[4,3,2-de][1,6]naphthyridin-1(2H)-one] has an EC50 (in vitro) of 22600 ± 373 nM and an EC50 [1, 3] of 0.0059 ± 0.002 µM.

For `CC(c1ncccn1)N1CCc2nc3c(c(C(=O)Nc4ccc(F)c(F)c4)c2C1)CCCC3` (stereo not drawn) [Compound 139, N-(3,4-Difluorophenyl)-2-(1-(pyrimidin-2-yl)ethyl)-1,2,3,4,6,7,8,9-octahydrobenzo[b][1,6]naphthyridine-10-carboxamide], the EC50 [1, 3] was 0.849 ± 0.52 µM, the EC50 ([1]; 3D7, read-out: 3D7 Mean EC50 of the TBN (μM)) was 0.453 ± 0.238 µM and the EC50 [2] was 0.266 ± 0.0462 µM.

Compound `O=C1c2c3c(nc4ccc(Cl)cc24)CCN(CCc2ccccc2)C3N1c1cccc(Cl)c1` (stereo not drawn) [Compound 176, 9-Chloro-2-(3-chlorophenyl)-3-phenethyl-2a,3,4,5-tetrahydrobenzo[b]pyrrolo[4,3,2-de][1,6]naphthyridin-1(2H)-one] has an EC50 (in vitro) of over 24000 nM and an EC50 [1, 3] of under 0.00296 µM.

For `Cc1nc(CN2CCc3nc4ccccc4c(C(=O)Nc4ccc(F)c(F)c4)c3C2)cs1` [Compound 112, N-(3,4-Difluorophenyl)-2-((2-methylthiazol-4-yl)methyl)-1,2,3,4-tetrahydrobenzo[b][1,6]naphthyridine-10-carboxamide], the EC50 [1, 3] was 1.03 ± 0.549 µM and the EC50 [2] was 0.641 µM.

`C[C@H](c1ccccc1)N1CCc2nc3ccccc3c(C(=O)Nc3ccc(F)c(F)c3)c2C1` [Compound 93, (R)—N-(3,4-Difluorophenyl)-2-(1-phenylethyl)-1,2,3,4-tetrahydrobenzo[b][1,6]naphthyridine-10-carboxamide] gave an EC50 [1, 3] of 0.131 ± 0.00623 µM and an EC50 [2] of 0.064 µM.

With `COc1ccc(NC(=O)c2c3c(nc4cc(Cl)ccc24)CCN(CCc2ccccc2)C3)cc1OC` [Compound 166, 7-Chloro-N-(3,4-dimethoxyphenyl)-2-phenethyl-1,2,3,4-tetrahydrobenzo[b][1,6]naphthyridine-10-carboxamide] the EC50 (in vitro) was over 24000 nM and the EC50 [1, 3] was under 0.0132 µM.

Work on `O=C(Nc1ccc(F)c(F)c1)c1c2c(nc3ccccc13)CCN(Cc1ccc(F)cc1)C2` [Compound 107, N-(3,4-Difluorophenyl)-2-(4-fluorobenzyl)-1,2,3,4-tetrahydrobenzo[b][1,6]naphthyridine-10-carboxamide] yielded an EC50 [1, 3] of 0.569 µM and an EC50 [2] of 0.401 µM.

`CCCCN1CCc2nc3ccccc3c(C(=O)Nc3ccc(F)c(F)c3)c2C1` [Compound 99, 2-Butyl-N-(3,4-difluorophenyl)-1,2,3,4-tetrahydrobenzo[b][1,6]naphthyridine-10-carboxamide] gave an EC50 [1, 3] of 0.37 ± 0.376 µM and an EC50 [2] of 0.102 µM.

Compound `CC(C)(C)OC(=O)N1CCc2nc3ccccc3c(C(=O)Nc3ccc(F)c(F)c3)c2C1` [Compound 87, tert-Butyl 10-((3,4-difluorophenyl)carbamoyl)-3,4-dihydrobenzo[b][1,6]naphthyridine-2(1H)-carboxylate] has an EC50 (in vitro) of over 23300 nM and an EC50 [1, 3] of 1.67 ± 0.8 µM.

In the case of `O=C(Nc1ccc(F)c(F)c1)c1c2c(nc3ccccc13)CCN(CCOC1CCCCO1)C2` (stereo not drawn) [Compound 102, N-(3,4-Difluorophenyl)-2-(2-((tetrahydro-2H-pyran-2-yl)oxy)ethyl)-1,2,3,4-tetrahydrobenzo[b][1,6]naphthyridine-10-carboxamide], the EC50 [1, 3] is reported as 0.441 ± 0.156 µM and the EC50 [2] is reported as 0.178 ± 0.0436 µM.

`O=C1c2c3c(nc4cc(Cl)ccc24)CCN(CCc2ccccc2)C3N1c1ccc(Br)cc1` (stereo not drawn) [Compound 175, 2-(4-Bromophenyl)-8-chloro-3-phenethyl-2a,3,4,5-tetrahydrobenzo[b]pyrrolo[4,3,2-de][1,6]naphthyridin-1(2H)-one] showed an EC50 (in vitro) of 15200 ± 8470 nM and an EC50 [1, 3] of under 0.00192 µM.
